pEC50: −log10 of the molar value. Counter-ions that a name gives are not always drawn. Like-named read-outs stand apart in the source and are kept apart here.
Key:
[1] = test system: HCT-8/WT cells; experiment: MTS cytotoxicity (drug tolerance) assay; settings: for TC50: WT cells, no drug selection, MTS assay
Experimental: (§1) Host cell drug tolerance to specified inhibitors was evaluated by 3-(4,5-dimethylthiazol-2-yl)-5-(3-carboxymethoxyphenyl)-2-(4-sulfophenyl)-2H-tetrazolium (MTS) assay. WT and transgenic host cells were seeded in 96-well plates (10,000 cells/well) and cultured for 24 h, followed by the addition of specified compounds at serially diluted concentrations and continued culture for 41 h. After 3 washes with serum-free medium, MTS solution (Saint-Bio, Shanghai, China) was added into the plates (20 μL/well) and incubated at 37°C for 2 h. Optical density at 490 nm (OD490) was measured using a Synergy LX multi-mode reader (BioTek, Winooski, VT). Drug tolerance was indicated by half-maximal cytotoxic concentrations (TC50 values) calculated by nonlinear regression using 4PL model. Selectivity index (SI) for each compound was determined by the ratio between TC50 and EC50 values (SI = TC50/EC50).

[2] = test system: HCT-8/MDR1(NTZ) cells; experiment: MTS cytotoxicity (drug tolerance) assay; settings: for TC50: MDR1(NTZ) cells
Experimental: as §1
(§2) Surviving cells were allowed to recover in drug-free medium for 3–5 d to near confluence (round 1). The selection/recovery cycle were repeated once (round 2). […] The resulting cell lines after PTX or NTZ selection were designated as WT(PTX), NC(PTX) and MDR1(PTX), or WT(NTZ), NC(NTZ) and MDR1(NTZ), respectively (Tables 1 and S2).

[3] = test system: HCT-8/NC(PTX) cells; experiment: MTS cytotoxicity (drug tolerance) assay; settings: for TC50: human, 41 h
Experimental: as §1, §2

[4] = test system: HCT-8/WT(PTX) cells; experiment: MTS cytotoxicity (drug tolerance) assay; settings: for TC50: human, 41 h
Experimental: as §1, §2

[5] = test system: HCT-8/MDR1(PTX) cells; settings: for TC50: MDR1(PTX) cells; for Pct change of TC50 (vs NC): MDR1(PTX) vs NC cells
Experimental: as §1, §2

[6] = test system: HCT-8/NC(NTZ) cells; experiment: MTS cytotoxicity (drug tolerance) assay; settings: for TC50: human, 41 h
Experimental: as §1
(§3) Surviving cells were allowed to recover in drug-free medium for 3–5 d to near confluence (round 1). The selection/recovery cycle were repeated once (round 2). […] Finally, all cells were cultured at the final selection concentrations of PTX or NTZ for ≥7 d, followed by culture in drug-free medium for 14 d. At this time point, cells were used for cytotoxicity and efficacy assays or cryopreserved in a liquid nitrogen tank. The resulting cell lines after PTX or NTZ selection were designated as WT(PTX), NC(PTX) and MDR1(PTX), or WT(NTZ), NC(NTZ) and MDR1(NTZ), respectively (Tables 1 and S2).

[7] = test system: HCT-8/WT(NTZ) cells; experiment: MTS cytotoxicity (drug tolerance) assay; settings: for TC50: human, 41 h
Experimental: as §1, §3

[8] = test system: HCT-8/NC cells; settings: human, 41 h
[9] = test system: HCT-8/MDR1 cells; experiment: MTS cytotoxicity (drug tolerance) assay; settings: for TC50: MDR1 cells, no drug selection, MTS assay
[10] = test system: Cryptosporidium parvum; experiment: Anti-cryptosporidial efficacy assay (44-h infection/qRT-PCR); settings: for On-target (Eon) rate at EC50 / Off-target (Eoff) rate at EC50: MDR1(PTX) cell model; for On-target (Eon) rate at EC50: Eq 2; for Off-target (Eoff) rate at EC50: from Pct changes of EC50 and TC50 (Eq 1); for Action on parasite target (on-target) conclusion: MDR1-transgenic host cell model; for Eoff, proportion of off-parasite-target effect / Eon, proportion of on-parasite-target effect: MDR1(PTX) vs. NC model, Eq 3 and 4
[11] = Cryptosporidium parvum, MDR1, read-out: Antiparasitic efficacy (EC50), C. parvum cultured in MDR1(PTX) host cells
[12] = Cryptosporidium parvum, read-out: Antiparasitic efficacy (EC50), C. parvum cultured in NC host cells
[13] = Cryptosporidium parvum, read-out: Antiparasitic efficacy (EC50), C. parvum cultured in WT host cells

Row | Compound | TC50 [1] [µM] | TC50 ([2]; after selection by NTZ) [µM] | TC50 [3] [µM] | TC50 [4] [µM] | TC50 ([5]; after selection by PTX) [µM] | TC50 [6] [µM] | TC50 [7] [µM] | TC50 [8] [µM] | TC50 [9] [µM] | Pct change of TC50 (vs NC) [5] [%] | Off-target (Eoff) rate at EC50 [10] [%] | Action on parasite target (on-target) conclusion [10] | Eoff, proportion of off-parasite-target effect ([10]; at EC10) [%] | Eoff, proportion of off-parasite-target effect ([10]; at EC20) [%] | Eoff, proportion of off-parasite-target effect ([10]; at EC30) [%] | Eoff, proportion of off-parasite-target effect ([10]; at EC40) [%] | Eoff, proportion of off-parasite-target effect ([10]; at EC50) [%] | Eoff, proportion of off-parasite-target effect ([10]; at EC60) [%] | Eoff, proportion of off-parasite-target effect ([10]; at EC80) [%] | Eoff, proportion of off-parasite-target effect ([10]; at EC90) [%] | other results
1 | COc1cccc2c1C(=O)c1c(O)c3c(c(O)c1C2=O)C[C@@](O)(C(C)=O)C[C@@H]3O[C@H]1C[C@H](N)[C@H](O)[C@H](C)O1 [Daunorubicin, Daunorubicin HCl] | 3.91 | 3.93 | 4.05 | 3.88 | 10.23 | 3.85 | 4.09 | 4.16 | 3.95 | – | – | – | – | – | – | – | – | – | – | – | Fold increase of TC50 MDR1(NTZ) vs. NC ([2]; after selection by NTZ): 0.94; Fold increase of TC50 MDR1(NTZ) vs. MDR1 ([2]; after selection by NTZ vs parent cell line): 0.99; Fold change of TC50 NC(PTX) vs. NC [3]: 0.97; Fold change of TC50 WT(PTX) vs. WT [4]: 0.99; Fold change of TC50 MDR1(PTX) vs. NC ([5]; after selection by PTX): 2.46; Fold change of TC50 MDR1(PTX) vs. MDR1 ([5]; after selection by PTX vs parent cell line): 2.59; Fold change of TC50 MDR1(PTX)/NC(PTX) ([5]; ratio of TC50): 2.53; Fold increase of TC50 NC(NTZ) vs. NC [6]: 0.93; Fold increase of TC50 WT(NTZ) vs. WT [7]: 1.05; Fold change of TC50 MDR1/NC ([9]; ratio of TC50, MDR1 vs NC cells): 0.95
2 | COc1cccc2c1C(=O)c1c(O)c3c(c(O)c1C2=O)C[C@@](O)(C(=O)CO)C[C@@H]3O[C@H]1C[C@H](N)[C@H](O)[C@H](C)O1 [Doxorubicin, Doxorubicin HCl] | 4.03 | 6.90 | 4.15 | 4.24 | – | 4.21 | 4.18 | 4.34 | 6.67 | 140.3 | 45.5 | partially on-target | 26.90 | 32.80 | 37.30 | 41.30 | 45.3 | 49.60 | 61.40 | 72.90 | pEC50 [10, 11]: 5.71; pEC50 [10, 12]: 5.92; pEC50 [10, 13]: 5.93; On-target (Eon) rate at EC50 [10]: 54.5%; On-target (Eon) rate at EC50 ([10]; listed as DXR): 54.5%; Eon, proportion of on-parasite-target effect ([10]; at EC10): 73.10%; Eon, proportion of on-parasite-target effect ([10]; at EC20): 67.20%; Eon, proportion of on-parasite-target effect ([10]; at EC30): 62.70%; Eon, proportion of on-parasite-target effect ([10]; at EC40): 58.70%; Eon, proportion of on-parasite-target effect ([10]; at EC50): 54.7%; Eon, proportion of on-parasite-target effect ([10]; at EC60): 50.40%; Eon, proportion of on-parasite-target effect ([10]; at EC80): 38.60%; Eon, proportion of on-parasite-target effect ([10]; at EC90): 27.10%
3 | CC(=O)O[C@H]1C(=O)[C@@]2(C)[C@H]([C@H](OC(=O)c3ccccc3)[C@]3(O)C[C@H](OC(=O)[C@H](O)[C@@H](NC(=O)c4ccccc4)c4ccccc4)C(C)=C1C3(C)C)[C@]1(OC(C)=O)CO[C@@H]1C[C@@H]2O [Paclitaxel] | 12.75 | 21.94 | – | 16.03 | 45.86 | 12.73 | 12.51 | 12.37 | 20.22 | 270.7 | -1.2 | 100% on-target | -4.20 | -3.30 | -2.60 | -2.10 | −1.5 | -1.00 | 0.30 | 1.50 | Calculated cytotoxicity at EC50 ([1]; percent inhibition of WT host cell growth at the EC50 concentration, calculated with Eq 5 from k and h): 1.92%; pEC50 [10, 11]: 6.54; pEC50 [10, 12]: 6.52; pEC50 [10, 13]: 6.51; Eoff, proportion of off-parasite-target effect ([10]; at EC70): -0.40%
4 | Ivermectin | – | – | – | – | – | – | – | – | – | – | 22.9 | partially on-target | 18.40 | 20.10 | 21.20 | 22.10 | 22.8 | 23.60 | 25.30 | 26.60 | On-target (Eon) rate at EC50 [10]: 77.1%; On-target (Eon) rate at EC50 ([10]; listed as IVM): 77.1%; Eon, proportion of on-parasite-target effect ([10]; at EC10): 81.60%; Eon, proportion of on-parasite-target effect ([10]; at EC10, listed as IVM): 81.6%; Eon, proportion of on-parasite-target effect ([10]; at EC20): 79.90%; Eon, proportion of on-parasite-target effect ([10]; at EC30): 78.80%; Eon, proportion of on-parasite-target effect ([10]; at EC40): 77.90%; Eon, proportion of on-parasite-target effect ([10]; at EC50): 77.2%; Eon, proportion of on-parasite-target effect ([10]; at EC60): 76.40%; Eoff, proportion of off-parasite-target effect ([10]; at EC70): 24.40%; Eon, proportion of on-parasite-target effect ([10]; at EC70): 75.60%; Eon, proportion of on-parasite-target effect ([10]; at EC80): 74.70%; Eon, proportion of on-parasite-target effect ([10]; at EC90): 73.40%; Eon, proportion of on-parasite-target effect ([10]; at EC90, listed as IVM): 73.4%; pEC50 ([10]; read-out: Antiparasitic efficacy (EC50), C. parvum cultured in MDR1(PTX) host cells): 5.37; pEC50 ([10]; read-out: Antiparasitic efficacy (EC50), C. parvum cultured in NC host cells): 5.49; pEC50 ([10]; read-out: Antiparasitic efficacy (EC50), C. parvum cultured in WT host cells): 5.50

Reference: paper PMC10079235 (PLOS Neglected Tropical Diseases, 2023)
